16 compounds from patent publication US11754555B2, “Pad for immunochromatographic device and immunochromatographic device, immunochromatographic kit and immunochromatographic detection method using pad” (TANAKA KIKINZOKU KOGYO K.K., priority 2018, dated 2023) can be followed below.

The test system of data set [1] is inactivated Group A β-hemolytic streptococcus. Kind of data set: Visual evaluation of red line on detection part of immunochromatographic device. Particulars: for Result of Visual Evaluation (After Storage at 50° C. for 24 Hours): device stored at 50° C. for 24 hours, then positive analyte sample 5×10^5 org/mL, 5 minutes; for Result of Visual Evaluation (After 5 Minutes): positive analyte sample 5×10^5 org/mL, 150 μL, member order of FIG. 3, acid content per pad as in Table 1. How it is done: (§1) The immunochromatographic device and the analyte dilution solution produced above were used, and a sample obtained by adding inactivated Group A β-hemolytic streptococcus at 5×10^5 org/mL was used as a positive analyte sample.
The analyte sample in an amount of 150 μL was dropped to the sample droplet receiving part of the device and developed, and a visual evaluation was made after 5 minutes. Any of the following marks was given: “+” (positive) when the red line on the detection part (4) could be visually observed; “++” (strong positive) when the red line could be visually observed clearly; “±” (weak positive) when a light red line could be visually observed; and “−” (negative) when the red line could not be visually observed.
Separately from the above evaluation, the immunochromatographic device produced above were stored at 50° C. for 24 hours, and then the measurement and the visual evaluation were conducted. […]
Immunochromatographic kits were produced and measurement was conducted in the same manners as in Example 1 except that the kind of the acid anhydride in Example 1 was changed to those shown in Table 1.

Data set [2] can be described thus: Sublimation at 25° C. at 20 Pa (weight change after 12 hours under reduced pressure). The class given is physicochemical. The conditions noted are these: 1 g acid, reduced pressure 25° C., weight change within or exceeding 5%. How it is done: Whether the acids used in the Examples and the Comparative Examples sublimate at 25° C. at 20 Pa was examined by the following method. First, 1 g of an acid was measured in a glass vial, and the weight was measured after subjecting the acid to reduced pressure at 25° C. at 20 Pa for 12 hours.

In data set [3] the test system is inactivated Group A β-hemolytic streptococcus. Briefly: Color intensity of red line on detection part measured with immunochromatoreader. The protocol:
as §1
The color intensity of the red line on the detection part (4) five minutes after starting development was measured with an immunochromatoreader (manufactured by Hamamatsu Photonics K.K.). As a result, the color intensity was 83.7 mAbs.
An immunochromatographic kit was produced in the same manner as in Example 1 except that the sample droplet receiving member (1), the acid anhydride containing member (7), the labeling substance retaining member (2), the chromatography medium member (3) having the detection part (4) and the absorption member (5) were pasted to a base material composed of a backing sheet (6) in a manner that the members were linked in this order along the direction of sample development (the order shown in FIG. 1), and the color intensity was measured with an immunochromatoreader (manufactured by Hamamatsu Photonics K.K.). As a result, the color intensity after five minutes was 48.1 mAbs.
An immunochromatographic kit was produced in the same manner as in Example 3 except that “malic acid” was used instead of “bicyclo[2,2,2]oct-7-ene-2,3,5,6-tetracarboxylic dianhydride”, which is the acid anhydride, and the color intensity after five minutes was measured with an immunochromatoreader (manufactured by Hamamatsu Photonics K.K.). As a result, the color intensity was 4.1 mAbs.

Setting [4] is: five minutes after starting development, member order of FIG. 3 (acid-containing member downstream of labeling member).

`O=C(ON1C(=O)CCC1=O)c1ccccc1` [Comparative Example 1, N-(benzoyloxy)succinimide]: in data set [1], the “Result of Visual Evaluation (After Storage at 50° C. for 24 Hours)” value is “−” and the “Result of Visual Evaluation (After 5 Minutes)” value (from here on “Result … (After 5 Minutes)”) is recorded as “−”.
As to `O=C1OC(=O)[C@@H]2CC=CC[C@H]12` [Comparative Example 9, cis-4-cyclohexene-1,2-dicarboxylic anhydride], the “Sublimation at 25° C. at 20 Pa” value in data set [2] is recorded as “A (“A” indicates that the acid did not sublimate)”. Besides, in data set [1], the “Result of Visual Evaluation (After Storage at 50° C. for 24 Hours)” value was “−” and the “Result … (After 5 Minutes)” value is listed as “+”.
In the case of `O=C1OC(=O)C2C3C=CC(C12)C1C(=O)OC(=O)C31` (stereo not drawn) [Example 1, bicyclo[2,2,2]oct-7-ene-2,3,5,6-tetracarboxylic dianhydride], the “Sublimation at 25° C. at 20 Pa” value in data set [2] is given as “A (“A” indicates that the acid did not sublimate)”. In data set [1], the “Result of Visual Evaluation (After Storage at 50° C. for 24 Hours)” value is given as “++” and the “Result … (After 5 Minutes)” value is given as “++”. For the same compound, the “color intensity of the red line on the detection part (4)” value (“color intensity of the red line” for short) in data set [3] (after five minutes, member order of FIG. 1 (acid anhydride member upstream of labeling member)) was 48.1 mAbs. The “color intensity of the red line” value in data set [3] (setting [4]) was found to be 83.7 mAbs.
With `O=c1oc(=O)c2cc3c(=O)oc(=O)c3cc12` [Example 2, pyromellitic anhydride], in data set [2], the “Sublimation at 25° C. at 20 Pa” value is “A (“A” indicates that the acid did not sublimate)”. For the same compound, in data set [1], the “Result of Visual Evaluation (After Storage at 50° C. for 24 Hours)” value is “++” and the “Result … (After 5 Minutes)” value is “++”.
On to `CC#Cc1ccc2c(c1)C(=O)OC2=O` [Example 3, 4-(1-propynyl)phthalic anhydride], for which the “Sublimation at 25° C. at 20 Pa” value in data set [2] is given as “A (“A” indicates that the acid did not sublimate)”. Also, in data set [1], the “Result of Visual Evaluation (After Storage at 50° C. for 24 Hours)” value is given as “+” and the “Result … (After 5 Minutes)” value is given as “+”.
For `CC(=O)Nc1cccc2c1C(=O)OC2=O` [Example 4, 3-acetamidophthalic anhydride], in data set [2], the “Sublimation at 25° C. at 20 Pa” value is recorded as “A (“A” indicates that the acid did not sublimate)”. In data set [1], the “Result of Visual Evaluation (After Storage at 50° C. for 24 Hours)” value is reported as “+” and the “Result … (After 5 Minutes)” value was “+”.
As to `O=C1OC(=O)C2CC3C(=O)OC(=O)C3CC12` (stereo not drawn) [Example 5, 1,2,4,5-cyclohexanetetracarboxylic dianhydride], in data set [2], the “Sublimation at 25° C. at 20 Pa” value is listed as “A (“A” indicates that the acid did not sublimate)”. In data set [1], the “Result of Visual Evaluation (After Storage at 50° C. for 24 Hours)” value was “++” and the “Result … (After 5 Minutes)” value is given as “++”.
In the case of `O=C1CC(C2CC3C(=O)OC(=O)C3c3ccccc32)C(=O)O1` (stereo not drawn) [Example 6, 4-(2,5-dioxotetrahydrofuran-3-yl)-1,2,3,4-tetrahydronaphthalene-1,2-dicarboxylic anhydride], in data set [2], the “Sublimation at 25° C. at 20 Pa” value is listed as “A (“A” indicates that the acid did not sublimate)”. Besides, in data set [1], the “Result of Visual Evaluation (After Storage at 50° C. for 24 Hours)” value is reported as “++” and the “Result … (After 5 Minutes)” value is on record as “++”.
On to `O=C1CCC(=O)O1` [compound 2, succinic anhydride], for which the “Sublimation at 25° C. at 20 Pa” value in data set [2] is recorded as “B (“B” indicates that the acid sublimated)”. Moreover, in data set [1], the “Result of Visual Evaluation (After Storage at 50° C. for 24 Hours)” value was “−” and the “Result … (After 5 Minutes)” value is listed as “++”.
For the compound `O=C(O)CC(O)C(=O)O` (stereo not drawn) [compound 3, malic acid], in data set [1], the “Result of Visual Evaluation (After Storage at 50° C. for 24 Hours)” value is reported as “−” and the “Result … (After 5 Minutes)” value is recorded as “−”. In addition, in data set [3] (setting [4]), the “color intensity of the red line” value worked out at 4.1 mAbs.
Regarding `C=C(CC(=O)O)C(=O)O` [compound 4, itaconic acid], in data set [1], the “Result of Visual Evaluation (After Storage at 50° C. for 24 Hours)” value is “−” and the “Result … (After 5 Minutes)” value is given as “−”.
For `O=C(O)CN(CCO)CCO` [compound 5, N,N-bis(2-hydroxyethyl)glycine], in data set [1], the “Result of Visual Evaluation (After Storage at 50° C. for 24 Hours)” value is on record as “−” and the “Result … (After 5 Minutes)” value is reported as “−”.
As for `CCCCCCCC/C=C\CCCCCCCC(=O)O` [compound 6, oleic acid], in data set [1], the “Result of Visual Evaluation (After Storage at 50° C. for 24 Hours)” value is on record as “−” and the “Result … (After 5 Minutes)” value is listed as “−”.
With `N[C@@H](CCC(=O)O)C(=O)O` [compound 7, glutamic acid], in data set [1], the “Result of Visual Evaluation (After Storage at 50° C. for 24 Hours)” value is on record as “−” and the “Result … (After 5 Minutes)” value was “−”.
With `O=C1CC(c2ccccc2)C(=O)O1` (stereo not drawn) [compound 8, phenylsussinic acid anhydride], the “Sublimation at 25° C. at 20 Pa” value in data set [2] is recorded as “A (“A” indicates that the acid did not sublimate)”. For the same compound, in data set [1], the “Result of Visual Evaluation (After Storage at 50° C. for 24 Hours)” value was “−” and the “Result … (After 5 Minutes)” value is reported as “+”.
Taken in the same sequence, the figures for “octadecenylsuccinic anhydride [Reference Example 2]” were “A (“A” indicates that the acid did not sublimate)”, “±” and “±”.
